Data taken from patent US10968203B2, “Pyrimidinyl-pyridyloxy-naphthyl compounds and methods of treating IRE1-related diseases and disorders” (Genentech, Inc., priority 2017, dated 2021).
Counter-ions that a name gives are not always drawn.

Test system: XBP1s-luc 293 LUC
Assay: cellular PD assay, XBP1s-LUC reporter (Example 903)
Type: cell-based
Details: Table 1; read-out: XBP1s-luc 293 LUC (IC50)
Outline: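 A luciferase fusion, in frame and expressed only when the XBP1 transcript is spliced, served as the readout of cellular IRE1α activity in an XBP1-Luc reporter line.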

SMILES	IC50 [nM]
Cc1ccc2c(NS(=O)(=O)Cc3ccccn3)cccc2c1Oc1ncccc1-c1ccnc(N[C@H]2CCCNC2)n1 [Example 126, (S)—N-(6-Methyl-5-((3-(2-(piperidin-3-ylamino)pyrimidin-4-yl)pyridin-2-yl)oxy)naphthalen-1-yl)-1-(pyridin-2-yl)methanesulfonamide hydrochloride]	54
Cc1ccc2c(NS(=O)(=O)CC3CCC3)cccc2c1Oc1ncccc1-c1ccnc(N[C@H]2CCCNC2)n1 [Example 127, (S)-1-Cyclobutyl-N-(6-methyl-5-((3-(2-(piperidin-3-ylamino)pyrimidin-4-yl)pyridin-2-yl)oxy)naphthalen-1-yl)methanesulfonamide]	233
Cc1ccc2c(NS(=O)(=O)CC3CCCC3)cccc2c1Oc1ncccc1-c1ccnc(N[C@H]2CCCNC2)n1 [Example 128, (S)-1-Cyclopentyl-N-(6-methyl-5-((3-(2-(piperidin-3-ylamino)pyrimidin-4-yl)pyridin-2-yl)oxy)naphthalen-1-yl)methanesulfonamide]	317
Cc1ccc2c(NS(=O)(=O)CCC3CC3)cccc2c1Oc1ncccc1-c1ccnc(N[C@H]2CCCNC2)n1 [Example 129, (S)-2-Cyclopropyl-N-(6-methyl-5-((3-(2-(piperidin-3-ylamino)pyrimidin-4-yl)pyridin-2-yl)oxy)naphthalen-1-yl)ethanesulfonamide]	301
Cc1ccc2c(NC(=O)CC3CCCCC3)cccc2c1Oc1ncccc1-c1ccnc(N[C@H]2CCCNC2)n1 [Example 130, (S)-2-Cyclohexyl-N-(6-methyl-5-((3-(2-(piperidin-3-ylamino)pyrimidin-4-yl)pyridin-2-yl)oxy)naphthalen-1-yl)acetamide]	228
Cc1ccc2c(NC(=O)C3CCC3)cccc2c1Oc1ncccc1-c1ccnc(N[C@H]2CCCNC2)n1 [Example 131, (S)—N-(6-Methyl-5-((3-(2-(piperidin-3-ylamino)pyrimidin-4-yl)pyridin-2-yl)oxy)naphthalen-1-yl)cyclobutanecarboxamide]	153
COCCCS(=O)(=O)Nc1cccc2c(Oc3ncccc3-c3ccnc(N[C@H]4CCCNC4)n3)c(C)ccc12 [Example 132, (S)-3-Methoxy-N-(6-methyl-5-((3-(2-(piperidin-3-ylamino)pyrimidin-4-yl)pyridin-2-yl)oxy)naphthalen-1-yl)propane-1-sulfonamide hydrochloride]	365
Cc1ccc2c(NS(=O)(=O)CC3CCOCC3)cccc2c1Oc1ncccc1-c1ccnc(N[C@H]2CCCNC2)n1 [Example 133, (S)—N-(6-Methyl-5-((3-(2-(piperidin-3-ylamino)pyrimidin-4-yl)pyridin-2-yl)oxy)naphthalen-1-yl)-1-(tetrahydro-2H-pyran-4-yl)methanesulfonamide hydrochloride]	158
Cc1ccc2c(NS(=O)(=O)Cc3ccccc3Cl)cccc2c1Oc1ncccc1-c1ccnc(N[C@H]2CCCNC2)n1 [Example 135, (S)-1-(2-Chlorophenyl)-N-(6-methyl-5-((3-(2-(piperidin-3-ylamino)pyrimidin-4-yl)pyridin-2-yl)oxy)naphthalen-1-yl)methanesulfonamide]	10
CCCCS(=O)(=O)Nc1cccc2c(Oc3ncccc3-c3ccnc(N[C@H]4CCCNC4)n3)c(C)ccc12 [Example 136, (S)—N-(6-Methyl-5-((3-(2-(piperidin-3-ylamino)pyrimidin-4-yl)pyridin-2-yl)oxy)naphthalen-1-yl) butane-1-sulfonamide]	297
COCCS(=O)(=O)Nc1cccc2c(Oc3ncccc3-c3ccnc(N[C@H]4CCCNC4)n3)c(C)ccc12 [Example 137, (S)-2-Methoxy-N-(6-methyl-5-((3-(2-(piperidin-3-ylamino)pyrimidin-4-yl)pyridin-2-yl)oxy)naphthalen-1-yl)ethanesulfonamide]	477
COC(C)CS(=O)(=O)Nc1cccc2c(Oc3ncccc3-c3ccnc(N[C@H]4CCCNC4)n3)c(C)ccc12 (stereo partly drawn) [Example 138, 2-Methoxy-N-(6-methyl-5-((3-(2-((S)-piperidin-3-ylamino)pyrimidin-4-yl)pyridin-2-yl)oxy)naphthalen-1-yl)propane-1-sulfonamide]	388
Cc1ccc2c(NS(=O)(=O)CC(C)(C)C)cccc2c1Oc1ncccc1-c1ccnc(N[C@H]2CCCNC2)n1 [Example 139, (S)-2,2-Dimethyl-N-(6-methyl-5-((3-(2-(piperidin-3-ylamino)pyrimidin-4-yl)pyridin-2-yl)oxy)naphthalen-1-yl)propane-1-sulfonamide]	241
Cc1ccc2c(NS(=O)(=O)C3CCCCC3)cccc2c1Oc1ncccc1-c1ccnc(N[C@H]2CCCNC2)n1 [Example 140, (S)—N-(6-Methyl-5-((3-(2-(piperidin-3-ylamino)pyrimidin-4-yl)pyridin-2-yl)oxy)naphthalen-1-yl)cyclohexanesulfonamide]	177
Cc1ccc2c(NS(=O)(=O)CC3CCCO3)cccc2c1Oc1ncccc1-c1ccnc(N[C@H]2CCCNC2)n1 (stereo partly drawn) [Example 141, N-(6-Methyl-5-((3-(2-((S)-piperidin-3-ylamino)pyrimidin-4-yl)pyridin-2-yl)oxy)naphthalen-1-yl)-1-(tetrahydrofuran-2-yl)methanesulfonamide]	457
Cc1ccc2c(NS(=O)(=O)Cc3ccccc3C(F)(F)F)cccc2c1Oc1ncccc1-c1ccnc(N[C@H]2CCCNC2)n1 [Example 142, (S)—N-(6-Methyl-5-((3-(2-(piperidin-3-ylamino)pyrimidin-4-yl)pyridin-2-yl)oxy)naphthalen-1-yl)-1-(2-(trifluoromethyl)phenyl)methanesulfonamide]	8
Cc1ccc2c(NS(=O)(=O)Cc3ccc(Cl)cc3)cccc2c1Oc1ncccc1-c1ccnc(N[C@H]2CCCNC2)n1 [Example 143, (S)-1-(4-Chlorophenyl)-N-(6-methyl-5-((3-(2-(piperidin-3-ylamino)pyrimidin-4-yl)pyridin-2-yl)oxy)naphthalen-1-yl)methanesulfonamide]	17
Cc1ccc2c(NS(=O)(=O)Cc3cccc(Cl)c3)cccc2c1Oc1ncccc1-c1ccnc(N[C@H]2CCCNC2)n1 [Example 144, (S)-1-(3-Chlorophenyl)-N-(6-methyl-5-((3-(2-(piperidin-3-ylamino)pyrimidin-4-yl)pyridin-2-yl)oxy)naphthalen-1-yl)methanesulfonamide]	25
Cc1ccc2c(NS(=O)(=O)Cc3ccccc3F)cccc2c1Oc1ncccc1-c1ccnc(N[C@H]2CCCNC2)n1 [Example 145, (S)-1-(2-Fluorophenyl)-N-(6-methyl-5-((3-(2-(piperidin-3-ylamino)pyrimidin-4-yl)pyridin-2-yl)oxy)naphthalen-1-yl)methanesulfonamide]	15
Cc1ccc2c(NS(=O)(=O)Cc3ccccc3C#N)cccc2c1Oc1ncccc1-c1ccnc(N[C@H]2CCCNC2)n1 [Example 146, (S)-1-(2-Cyanophenyl)-N-(6-methyl-5-((3-(2-(piperidin-3-ylamino)pyrimidin-4-yl)pyridin-2-yl)oxy)naphthalen-1-yl)methanesulfonamide]	18
C=CS(=O)(=O)Nc1cccc2c(Oc3ncccc3-c3ccnc(N[C@H]4CCCNC4)n3)c(C)ccc12 [Example 147, (S)—N-(6-Methyl-5-((3-(2-(piperidin-3-ylamino)pyrimidin-4-yl)pyridin-2-yl)oxy)naphthalen-1-yl)ethenesulfonamide]	139
Cc1ccc2c(NS(=O)(=O)Cc3ccccc3)cccc2c1Oc1ncccc1-c1ccnc(N[C@@H]2CNC[C@H](F)C2)n1 [Example 148, N-(5-((3-(2-(((3S,5R)-5-Fluoropiperidin-3-yl)amino)pyrimidin-4-yl)pyridin-2-yl)oxy)-6-methylnaphthalen-1-yl)-1-phenylmethanesulfonamide]	211
Cc1ccc2c(NS(=O)(=O)c3cccnc3)cccc2c1Oc1ncccc1-c1ccnc(N[C@H]2CCCNC2)n1 [Example 149, (S)—N-(6-Methyl-5-((3-(2-(piperidin-3-ylamino)pyrimidin-4-yl)pyridin-2-yl)oxy)naphthalen-1-yl)pyridine-3-sulfonamide]	494
Cc1ccc2c(NS(=O)(=O)Cc3ccc(F)cc3)cccc2c1Oc1ncccc1-c1ccnc(N[C@H]2CCCNC2)n1 [Example 150, (S)-1-(4-Fluorophenyl)-N-(6-methyl-5-((3-(2-(piperidin-3-ylamino)pyrimidin-4-yl)pyridin-2-yl)oxy)naphthalen-1-yl)methanesulfonamide]	25
Cc1ccc2c(NS(=O)(=O)CCl)cccc2c1Oc1ncccc1-c1ccnc(N[C@H]2CCCNC2)n1 [Example 151, (S)-1-Chloro-N-(6-methyl-5-((3-(2-(piperidin-3-ylamino)pyrimidin-4-yl)pyridin-2-yl)oxy)naphthalen-1-yl)methanesulfonamide]	140
Cc1ccc2c(NS(=O)(=O)Cc3ccccc3)cccc2c1Oc1ncccc1-c1ccnc(N[C@H]2CC[C@H](N)CC2)n1 [Example 152, N-(5-((3-(2-(((trans)-4-Aminocyclohexyl)amino)pyrimidin-4-yl)pyridin-2-yl)oxy)-6-methylnaphthalen-1-yl)-1-phenylmethanesulfonamide]	241
CCOC(=O)Nc1cccc2c(Oc3ncccc3-c3ccnc(N[C@H]4CCCNC4)n3)c(C)ccc12 [Example 153, (S)-Ethyl (6-methyl-5-((3-(2-(piperidin-3-ylamino)pyrimidin-4-yl)pyridin-2-yl)oxy)naphthalen-1-yl)carbamate]	143
Cc1ccc2c(NC(=O)C3(C)CC3)cccc2c1Oc1ncccc1-c1ccnc(N[C@H]2CCCNC2)n1 [Example 154, (S)-1-Methyl-N-(6-methyl-5-((3-(2-(piperidin-3-ylamino)pyrimidin-4-yl)pyridin-2-yl)oxy)naphthalen-1-yl)cyclopropane-1-carboxamide]	239
Cc1ccc2c(NC(=O)C3(F)CC3)cccc2c1Oc1ncccc1-c1ccnc(N[C@H]2CCCNC2)n1 [Example 155, (S)-1-Fluoro-N-(6-methyl-5-((3-(2-(piperidin-3-ylamino)pyrimidin-4-yl)pyridin-2-yl)oxy)naphthalen-1-yl)cyclopropane-1-carboxamide]	380
